Laboratory results published in patent US11046680B1, “Heteroaryl-substituted triazoles as APJ receptor agonists” (priority 2016, dated 2021).

The molecules below were run against human APJ receptor (Homo sapiens (Human), UniProt P35414) (assay: biochemical). Details: [35S]GTPγS binding, CHO membranes expressing human APJ receptor; read-out: Activity hAPJ SPA EC50 IP.
Assay type: biochemical
Procedure, shortened: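 Membranes of a stable CHO line carrying human APJ (pFLAG-CMV-3) were used in a GTPγS binding format; buffer GDP, MgCl2 and NaCl were optimized, and plates were read after 90 min at RT.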

Sequence of human APJ receptor (P35414 whole entry): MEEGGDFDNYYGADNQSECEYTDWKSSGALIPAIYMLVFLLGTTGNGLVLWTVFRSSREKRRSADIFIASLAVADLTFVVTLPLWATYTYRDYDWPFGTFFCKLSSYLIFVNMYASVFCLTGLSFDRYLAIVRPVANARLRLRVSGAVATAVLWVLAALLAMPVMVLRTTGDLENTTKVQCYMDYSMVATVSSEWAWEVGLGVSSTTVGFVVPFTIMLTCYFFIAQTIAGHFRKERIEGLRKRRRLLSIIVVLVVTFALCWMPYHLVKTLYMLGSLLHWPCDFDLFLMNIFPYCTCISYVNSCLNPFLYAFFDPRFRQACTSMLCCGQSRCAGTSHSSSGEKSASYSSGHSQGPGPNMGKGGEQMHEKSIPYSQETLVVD

Point of comparison: `COc1cccc(OC)c1-n1c(NS(=O)(=O)[C@@H](C)[C@@H](OC(C)C)c2cnc(C)cn2)nnc1-c1cc(C)on1` [Example 497.0, (1S,2S)-N-(4-(2,6-dimethoxyphenyl)-5-(5-methylisoxazol-3-yl)-4H-1,2,4-triazol-3-yl)-1-isopropoxy-1-(5-methylpyrazin-2-yl)propane-2-sulfonamide], EC50 15 nM. Against it:
- COc1cccc(OC)c1-n1c(NS(=O)(=O)[C@@H](C)[C@H](C)c2ncc(C)cn2)nnc1-c1cnn(C)c1 [Example 215.0, (2S,3R)-N-(4-(2,6-dimethoxyphenyl)-5-(1-methyl-1H-pyrazol-4-yl)-4H-1,2,4-triazol-3-yl)-3-(5-methyl-2-pyrimidinyl)-2-butanesulfonamide] — 36-fold lower, 0.42 nM
- COCC1(n2c(NS(=O)(=O)[C@@H](C)[C@H](OC)c3ncc(Cl)cn3)nnc2-c2nn(C)c3c2CCCC3)CCC1 [Example 518.0] — 6.1-fold higher, 92 nM
- COc1cccc(OC)c1-n1c(NS(=O)(=O)C[C@H](O)c2ccc(Cl)cn2)nnc1-c1ccn(C)n1 (mixture of isomers) [Example 363.0, (R)-2-(5-Chloropyridin-2-yl)-N-(4-(2,6-dimethoxyphenyl)-5-(1-methyl-1H-pyrazol-3-yl)-4H-1,2,4-triazol-3-yl)-2-hydroxyethanesulfonamide and (S)-2-(5-chloropyridin-2-yl)-N-(4-(2,6-dimethoxyphenyl)-5-(1-methyl-1H-pyrazol-3-yl)-4H-1,2,4-triazol-3-yl)-2-hydroxyethanesulfonamide] — 10-fold lower, 1.5 nM
- COc1cccc(OC)c1-n1c(NS(=O)(=O)[C@@H](C)[C@H](C)c2ncc(F)cn2)nnc1-c1nc(C)cs1 (single isomer, unassigned) [Example 120.0] — 88-fold lower, 0.17 nM
- COc1ncnc(OC)c1-n1c(NS(=O)(=O)[C@@H](C)[C@H](OC)c2ncc(C)cn2)nnc1-c1csc(C)n1 [Example 5.0, (1R,2S)-N-(4-(4,6-dimethoxypyrimidin-5-yl)-5-(2-methylthiazol-4-yl)-4H-1,2,4-triazol-3-yl)-1-methoxy-1-(5-methylpyrimidin-2-yl)propane-2-sulfonamide] — 3.7-fold lower, 4.1 nM
- COc1ccc(N(C)C)cc1-n1c(NS(=O)(=O)CCc2ccc(Cl)cc2)nnc1-c1cccs1 [Example 252.0, 2-(4-chlorophenyl)-N-(4-(5-(dimethylamino)-2-methoxyphenyl)-5-(2-thiophenyl)-4H-1,2,4-triazol-3-yl)ethanesulfonamide] — within 1.5-fold, 11 nM
- COc1cccc(OC)c1-n1c(NS(=O)(=O)CCc2ccc(Cl)cc2)nnc1-c1cncs1 [Example 137.0, 2-(4-chlorophenyl)-N-(4-(2,6-dimethoxyphenyl)-5-(thiazol-5-yl)-4H-1,2,4-triazol-3-yl)ethanesulfonamide] — 2-fold higher, 30 nM
- COc1ccccc1-n1c(NS(=O)(=O)CCc2ccc(Cl)cc2)nnc1-c1cccs1 [Example 236.0, 2-(4-chlorophenyl)-N-(4-(2-methoxyphenyl)-5-(thiophen-2-yl)-4H-1,2,4-triazol-3-yl)ethanesulfonamide] — 8-fold higher, 120 nM
- COc1cccc(OC)c1-n1c(NS(=O)(=O)C[C@H](O)c2ccc(F)cc2S(C)(=O)=O)nnc1-c1ccn(C)n1 (single isomer, unassigned) [Example 371.0, (R)-N-(4-(2,6-Dimethoxyphenyl)-5-(1-methyl-1H-pyrazol-3-yl)-4H-1,2,4-triazol-3-yl)-2-(4-fluoro-2-(methylsulfonyl)phenyl)-2-hydroxyethanesulfonamide or (S)-N-(4-(2,6-dimethoxyphenyl)-5-(1-methyl-1H-pyrazol-3-yl)-4H-1,2,4-triazol-3-yl)-2-(4-fluoro-2-(methylsulfonyl)phenyl)-2-hydroxyethanesulfonamide] — 6.8-fold lower, 2.2 nM
- Cc1cnc([C@H](OC(C)C)[C@H](C)S(=O)(=O)Nc2nnc(-c3cnn4c3CCC4)n2-c2c(F)cccc2F)cn1 [Example 484.0, (1S,2S)-N-(4-(2,6-difluorophenyl)-5-(5,6-dihydro-4H-pyrrolo[1,2-b]pyrazol-3-yl)-4H-1,2,4-triazol-3-yl)-1-isopropoxy-1-(5-methylpyrazin-2-yl)propane-2-sulfonamide] — 1.6-fold lower, 9.2 nM
- COc1cncc(-c2nnc(NS(=O)(=O)[C@@H](C)[C@H](OC)c3cnc(C)cn3)n2-c2c(OC)cccc2OC)n1 [Example 327.0, (1R,2S)-N-(4-(2,6-dimethoxyphenyl)-5-(6-methoxy-2-pyrazinyl)-4H-1,2,4-triazol-3-yl)-1-methoxy-1-(5-methyl-2-pyrazinyl)-2-propanesulfonamide] — 3.8-fold lower, 4 nM
- CCO[C@H](c1ncc(Cl)cn1)[C@H](C)S(=O)(=O)Nc1nnc(-c2cc(C)n[nH]2)n1-c1c(OC)cccc1OC [Example 392.0, (1R,2S)-1-(5-Chloropyrimidin-2-yl)-N-(4-(2,6-dimethoxyphenyl)-5-(3-methyl-1H-pyrazol-5-yl)-4H-1,2,4-triazol-3-yl)-1-ethoxypropane-2-sulfonamide] — 15-fold lower, 1 nM
- COc1ncnc(OC)c1-n1c(NS(=O)(=O)[C@@H](C)[C@H](C)c2ncc(C)cn2)nnc1-c1nc(C)cs1 [Example 3.0, (2S,3R)-N-(4-(4,6-dimethoxypyrimidin-5-yl)-5-(4-methylthiazol-2-yl)-4H-1,2,4-triazol-3-yl)-3-(5-methylpyrimidin-2-yl)butane-2-sulfonamide] — 5.8-fold lower, 2.6 nM
- COc1ncnc(OC)c1-n1c(NS(=O)(=O)[C@@H](C)[C@H](C)c2ncc(Cl)cn2)nnc1-c1nn(C)c2ccc(C)cc12 [Example 433.0, (2S,3R)-3-(5-chloropyrimidin-2-yl)-N-(4-(4,6-dimethoxypyrimidin-5-yl)-5-(1,5-dimethyl-1H-indazol-3-yl)-4H-1,2,4-triazol-3-yl)butane-2-sulfonamide] — 18-fold lower, 0.84 nM
- COc1cccc(OC)c1-n1c(NS(=O)(=O)C[C@H](O)c2ccc(F)cc2S(C)(=O)=O)nnc1-c1ccn(C)n1 (single isomer, unassigned) [Example 370.0, (R)-N-(4-(2,6-Dimethoxyphenyl)-5-(1-methyl-1H-pyrazol-3-yl)-4H-1,2,4-triazol-3-yl)-2-(4-fluoro-2-(methylsulfonyl)phenyl)-2-hydroxyethanesulfonamide or (S)-N-(4-(2,6-dimethoxyphenyl)-5-(1-methyl-1H-pyrazol-3-yl)-4H-1,2,4-triazol-3-yl)-2-(4-fluoro-2-(methylsulfonyl)phenyl)-2-hydroxyethanesulfonamide] — 4.8-fold lower, 3.1 nM
- CCn1ccc(-c2nnc(NS(=O)(=O)[C@@H](C)[C@H](OC)c3ncc(C)cn3)n2-c2c(OC)cccc2OC)n1 [Example 387.0, (1R,2S)-N-(4-(2,6-Dimethoxyphenyl)-5-(1-ethyl-1H-pyrazol-3-yl)-4H-1,2,4-triazol-3-yl)-1-methoxy-1-(5-methylpyrimidin-2-yl)propane-2-sulfonamide] — 27-fold lower, 0.55 nM
- (R)-N-(4-(2,6-dimethoxyphenyl)-5-(pyrimidin-2-yl)-4H-1,2,4-triazol-3-yl)-1-(5-fluoropyrimidin-2-yl)propane-2-sulfonamide and (S)-N-(4-(2,6-dimethoxyphenyl)-5-(pyrimidin-2-yl)-4H-1,2,4-triazol-3-yl)-1-(5-fluoropyrimidin-2-yl)propane-2-sulfonamide [Example 56.0] — 4.9-fold higher, 74 nM
- COc1cccc(OC)c1-n1c(NS(=O)(=O)[C@@H](C)[C@H](O)c2ncc(C)cn2)nnc1-c1cc2n(n1)CCC2 [Example 220.0, (1R,2S)-N-(5-(5,6-dihydro-4H-pyrrolo[1,2-b]pyrazol-2-yl)-4-(2,6-dimethoxyphenyl)-4H-1,2,4-triazol-3-yl)-1-hydroxy-1-(5-methyl-2-pyrimidinyl)-2-propanesulfonamide] — 2.3-fold lower, 6.6 nM
